For experiment [1], the target named is P2X7 (IL-1β release from THP-1 cells) (Homo sapiens (Human), UniProt Q99572). As to the kind of experiment: IL-1β release assay. The class given is cell-based. Summed up: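 THP-1 cells were differentiated with PMA 0.5 μM and primed 4 h with LPS 10 ng/ml. They were then pre-incubated 20 min with compound at 37° C and stimulated 30 min with BzATP 0.8 mM. Mature IL-1β released into the supernatant was quantified by sandwich ELISA.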

In experiment [2] the target is human P2X7 receptor (Homo sapiens (Human), UniProt Q99572). Description: Pore permeation assay (YO PRO dye uptake). It counts as cell-based.
Chain of human P2X7 receptor (Q99572 whole entry): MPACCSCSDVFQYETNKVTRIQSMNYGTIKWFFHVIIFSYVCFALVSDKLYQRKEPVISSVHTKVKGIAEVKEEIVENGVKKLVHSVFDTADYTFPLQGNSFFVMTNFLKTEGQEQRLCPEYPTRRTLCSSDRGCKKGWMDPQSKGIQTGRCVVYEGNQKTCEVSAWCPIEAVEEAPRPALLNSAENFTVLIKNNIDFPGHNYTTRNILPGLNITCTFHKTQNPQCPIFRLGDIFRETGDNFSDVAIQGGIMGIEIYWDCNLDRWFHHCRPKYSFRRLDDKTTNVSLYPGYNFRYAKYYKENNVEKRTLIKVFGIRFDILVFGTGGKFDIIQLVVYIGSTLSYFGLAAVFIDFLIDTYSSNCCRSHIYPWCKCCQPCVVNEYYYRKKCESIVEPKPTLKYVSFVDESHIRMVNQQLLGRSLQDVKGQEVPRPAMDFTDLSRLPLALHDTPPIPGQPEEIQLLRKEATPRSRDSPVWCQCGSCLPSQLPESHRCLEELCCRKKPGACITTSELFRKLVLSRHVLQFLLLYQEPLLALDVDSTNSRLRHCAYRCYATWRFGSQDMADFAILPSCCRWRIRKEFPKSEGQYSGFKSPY
Where [3] appears, read: THP-1 cells, LPS primed, 0.8 mM BzATP, mature IL-1β by sandwich ELISA, read-out: hTHP-1/IL-ib IC50.

Structures are written as SMILES. Where two headings read alike, the source gives them in different places.

Chain of P2X7 (IL-1β release from THP-1 cells) (Q99572 whole entry): as above

With `O=C(NCC1CCC(C(F)(F)F)CC1)c1cn(C2COC2)c2cccc(Cl)c12` (centres unmarked) [Compound 53, 4-Chloro-1-oxetan-3-yl-1H-indole-3-carboxylic acid (4-trifluoromethyl-cyclohexylmethyl)-amide], the IC50 lay within 101 to 500 nM in experiment [1] and 10 to 100 nM in experiment [2].

For the molecule `O=C(NCCOC1CCCC1)c1cn(C2COC2)c2cccc(Cl)c12` [Compound 72, 4-Chloro-1-oxetan-3-yl-1H-indole-3-carboxylic acid (2-cyclopentyloxy-ethyl)-amide], the IC50 in experiment [1] (setting [3]) is > 1000 nM; in experiment [2], 500 to 999 nM.

For the molecule `CC1(Cn2cc(C(=O)NCC3CCC(F)(F)CC3)c3c(Cl)cccc32)CCN1` (centres unmarked) [Compound 152, 4-chloro-N-((4,4-difluorocyclohexyl)methyl)-1-((2-methylazetidin-2-yl)methyl)-1H-indole-3-carboxamide], the results for the IC50 in experiment [1] and in experiment [2] were 500 to 999 nM and 10 to 100 nM, respectively.

`O=C(NC[C@]1(O)CCCC(F)(F)C1)c1cn(C2COC2)c2cccc(Cl)c12` [Compound 85, (S)-4-chloro-N-((3,3-difluoro-1-hydroxycyclohexyl)methyl)-1-(oxetan-3-yl)-1H-indole-3-carboxamide]: the IC50 in experiment [1] and in experiment [2] was 10 to 100 nM throughout.

`CN1CC(F)(F)C[C@H]1Cn1cc(C(=O)NCC2CCC(F)(F)CC2)c2c(Cl)cccc21` [Compound 180, (S)-4-chloro-1-((4,4-difluoro-1-methylpyrrolidin-2-yl)methyl)-N-((4,4-difluorocyclohexyl)methyl)-1H-indole-3-carboxamide]: the values for the IC50 in experiment [1] and in experiment [2] were 500 to 999 nM and 101 to 500 nM, respectively.

In the case of `O=C(NCC1(O)CCCC(F)(F)C1)c1cn(CC2CCOC2)c2cccc(Cl)c12` (centres unmarked) [Compound 146, 4-chloro-N-((3,3-difluoro-1-hydroxycyclohexyl)methyl)-1-((tetrahydrofuran-3-yl)methyl)-1H-indole-3-carboxamide], the IC50 in experiment [1] and in experiment [2] was 10 to 100 nM in each case.

In the case of `O=C(NCC1CCC(F)(F)CC1)c1cn(C2CCNC2)c2cccc(Cl)c12` (centres unmarked) [Compound 121, 4-chloro-N-((4,4-difluorocyclohexyl)methyl)-1-(pyrrolidin-3-yl)-1H-indole-3-carboxamide], the IC50 in experiment [1] and in experiment [2] was 10 to 100 nM in each case.

On to `O=C(NC[C@]1(O)CCCC(F)(F)C1)c1cn(C[C@@H]2CCCO2)c2cccc(Cl)c12` [Compound 130, 4-chloro-N—(((S)-3,3-difluoro-1-hydroxycyclohexyl)methyl)-1-(((S)-tetrahydrofuran-2-yl)methyl)-1H-indole-3-carboxamide], for which the IC50 in experiment [1] and in experiment [2] was 10 to 100 nM throughout.

In the case of `CC(C)N1CC[C@H]1Cn1cc(C(=O)NCC2CCC(F)(F)CC2)c2c(Cl)cccc21` [Compound 191, (S)-4-chloro-N-((4,4-difluorocyclohexyl)methyl)-1-((1-isopropylazetidin-2-yl)methyl)-1H-indole-3-carboxamide], the IC50 in experiment [1] (setting [3]) is > 1000 nM; in experiment [2] it was 101 to 500 nM.

As for `O=C(NC[C@@]1(O)CCCC(F)(F)C1)c1cn(C2COC2)c2cccc(Cl)c12` [Compound 84, (R)-4-chloro-N-((3,3-difluoro-1-hydroxycyclohexyl)methyl)-1-(oxetan-3-yl)-1H-indole-3-carboxamide], the IC50 in experiment [1] and in experiment [2] was 101 to 500 nM in each case.

As to `O=C(NCC1CCC(F)(F)CC1)c1cn(CC2COCCO2)c2cccc(Cl)c12` (centres unmarked) [Compound 150, 1-((1,4-dioxan-2-yl)methyl)-4-chloro-N-((4,4-difluorocyclohexyl)methyl)-1H-indole-3-carboxamide], the IC50 in experiment [1] and in experiment [2] was 10 to 100 nM in each case.

Take `COCCn1cc(C(=O)NCC2(OC)CCC(F)(F)CC2)c2c(Cl)cccc21` [Compound 17, 4-Chloro-1-(2-methoxy-ethyl)-1H-indole-3-carboxylic acid (4,4-difluoro-1-methoxy-cyclohexylmethyl)-amide]: the IC50 is 101 to 500 nM in experiment [1] and 10 to 100 nM in experiment [2].

Take `COCCn1cc(C(=O)NCC2CCC(F)(F)CC2)c2c(Cl)cccc21` [Compound 41, 4-chloro-N-((4,4-difluorocyclohexyl)methyl)-1-(2-methoxyethyl)-1H-indole-3-carboxamide]: the results for the IC50 in experiment [1] (setting [3]) and in experiment [2] were < 10 nM and 10 to 100 nM, respectively.

In the case of `COCCn1cc(C(=O)NCCc2ccc(Cl)cc2Cl)c2c(Cl)cccc21` [Compound 36], the IC50 in experiment [1] (setting [3]) is > 1000 nM; in experiment [2], 101 to 500 nM.

In the case of `O=C(NCC1CCC(F)(F)CC1)c1cn(CC2CCNCC2)c2cccc(Cl)c12` [Compound 175, 4-chloro-N-((4,4-difluorocyclohexyl)methyl)-1-(piperidin-4-ylmethyl)-1H-indole-3-carboxamide], the IC50 in experiment [1] and in experiment [2] was 101 to 500 nM each time.

For the molecule `O=C(NC[C@@H]1CCCC(F)(F)C1)c1cn(C2COC2)c2cccc(Cl)c12` [Compound 66, 4-chloro-N—(((R)-3,3-difluorocyclohexyl)methyl)-1-(oxetan-3-yl)-1H-indole-3-carboxamide], the IC50 in experiment [1] is 101 to 500 nM; in experiment [2] it was 10 to 100 nM.

In the case of `O=C(NCC1CCC(F)(F)CC1)c1cn(CC2CCOCC2)c2cccc(Cl)c12` [Compound 168, 4-chloro-N-((4,4-difluorocyclohexyl)methyl)-1-((tetrahydro-2H-pyran-4-yl)methyl)-1H-indole-3-carboxamide], the IC50 in experiment [1] was in the range of 101 to 500 nM; in experiment [2] it was 10 to 100 nM.

Turning to `O=C(NCC1CCC(F)(F)CC1)c1cn(C[C@H]2CCN2)c2cccc(Cl)c12` [Compound 123, (R)-1-(azetidin-2-ylmethyl)-4-chloro-N-((4,4-difluorocyclohexyl)methyl)-1H-indole-3-carboxamide], the IC50 in experiment [1] and in experiment [2] was 101 to 500 nM throughout.

Turning to `O=C(NCC1(O)CCCC(F)(F)C1)c1cn(CC2CNC2)c2cccc(Cl)c12` (centres unmarked) [Compound 125], the IC50 in experiment [1] and in experiment [2] was 10 to 100 nM each time.

For the molecule `O=C(NCC1CC(C(F)(F)F)CC(F)(F)C1)c1cn(C2COC2)c2cccc(Cl)c12` (centres unmarked) [Compound 91, 4-chloro-N-((3,3-difluoro-5-(trifluoromethyl)cyclohexyl)methyl)-1-(oxetan-3-yl)-1H-indole-3-carboxamide], the IC50 fell in the range of 101 to 500 nM in experiment [1] and 10 to 100 nM in experiment [2].

Consider `C[C@@H]1CCC[C@](O)(CNC(=O)c2cn(CC(F)(F)F)c3cccc(Cl)c23)C1` [Compound 3, 4-chloro-N-(((1R,3R)-1-hydroxy-3-methylcyclo-hexyl)methyl)-1-(2,2,2-trifluoroethyl)-1H-indole-3-carboxamide], for which the IC50 in experiment [1] was in the range of 101 to 500 nM; in experiment [2], 10 to 100 nM.

With `CN1CCOCC1Cn1cc(C(=O)NCC2CCC(F)(F)CC2)c2c(Cl)cccc21` (centres unmarked) [Compound 184, 4-chloro-N-((4,4-difluorocyclohexyl)methyl)-1-((4-methylmorpholin-3-yl)methyl)-1H-indole-3-carboxamide], the IC50 in experiment [1] and in experiment [2] was 101 to 500 nM in each case.

For the origin of these results see patent US10323000B2, “Indole derivatives and their use in neurodegenerative diseases” (priority 2014, dated 2019).
